Results published in patent US20230052740A1, “MODULATORS OF CIRCADIAN RHYTHMS AND USES THEREOF” (The Regents of the University of California, priority 2019, published 2023).
Like-named read-outs stand apart in the source and are kept apart here.

Columns and labels:
hMT1 [1] = molecular target: T1, hMT1 (Homo sapiens, UniProt P48039); assay: 2-[125I]-iodomelatonin competition binding, CHO cell membranes; details: CHO-hMT1; affinity shift by G protein inactivation
Procedure: For receptor binding studies, '7447 was dissolved in 50% DMSO/50% ethanol for 13 mM stock solution, diluted 1/10 in 100% ethanol then 1/10 again in 50% ethanol/50% Tris-HCl buffer. Both '3384 and '4226 were dissolved in 100% ethanol for 13 mM stock solutions and then diluted 1/10 in 50% ethanol/50% Tris-HCl buffer. Further dilutions were done in Tris-HCl buffer.
Assays were incubated for 1 hour at 25° C. Bound radioligand was separated from freeby rapidvacuum filtration using glass microfiber filters (Whatman, Krackeler Scientific, Inc., Albany N.Y., USA) saturated in 0.5% polyethylenimine solution.
Affinity shifts or lack thereof with G protein inactivation indicate apparent efficacy (Lefkowitz, R. J. et al., J Biol Chem 251, 4686-4692, 1976) as ligands are classified as agonists (ΔpKi% MLT>20%), antagonists (ΔpKi% MLT<20%, >−20%), or inverse agonists (ΔpKi% MLT<−20%) accordingly.

C3H/HeN mice = assay: Re-entrainment of running wheel activity after 6 h advance of dark onset (jet-lag model); assay type: in vivo; details: 30 μg/mouse s.c., 3 days, WT; in words
From the text: Male and female C3H/HeN (C3H) wild-type (WT), MT1 knockout (MT1KO), and MT2 knockout (MT2KO) mice (average 6.28 months) used in this study were raised in our breeding colony at University at Buffalo. […] Genotype was confirmed using tail samples at the end of each experiment and was verified periodically during the tenure of the colony. The strains of mice in our breeding colony were re-derived periodically by backcrossing with WT mice to reduce genetic drift.
Mice were group housed (3-5 per cage) with corncob bedding in polycarbonate translucent cages (30×19 cm) and maintained in a 14/10 light-dark (LD) cycle (Zeitgeber time 0 or ZT0 corresponds to Lights ON and ZT 14 to Lights OFF) in temperature and humidity controlled rooms with ad libitum access to food and water in the Laboratory Animal Facility at the University at Buffalo. Light levels were 200-300 lux at the level of the cage. Treatments and animal care performed in the dark were under a dim red safelight (15 watts, Kodak 1A filter) with illuminance of less than 3-5 lux (Benloucif, S. & Dubocovich, M. L. J Biol Rhythms 11, 113-125, (1996). All experimental procedures using mice were conducted in accordance with guidelines set forth by the National Institutes of Health and approved by the University at Buffalo Institutional Animal Care and Use Committee.
Circadian rhythm phase was determined for each mouse using the onset of running wheel activity defined as CT12 (Circadian Time 12). Running wheel activity was measured continuously via magnetic microswitches detecting wheel revolutions with a computer equipped with Clocklab data collection Software™ (Actimetrics: Wilmette, Ill.). All actigraphy data was visualized and analyzed using ClockLab™ and MATLAB™ software. All mice were individually housed in cages (33×15 cm) equipped with running wheels in light-tight ventilated cabinets with controlled temperature and LD cycles (Phenome Technologies: Skokie, Ill.). Male and female mice were housed in separate cabinets for all experiments.
Male and female C3H WT, MT1KO, and MT2KO mice (3 to 6 months) were maintained under a 12:12 LD cycle for at least 2 weeks prior experimental manipulations to allow stable entrainment to dark onset before advance of the LD cycle. Actigraphy data was recorded as described above and all experiment protocols performed as described (Dubocovich, M. L. et al., J Pineal Res 39, 113-120, 2005). On the first day of treatment, the dark onset was advanced 6 h. […] Post treatment, mice were given 14-20 days to re-entrain running wheel activity onsets to the new dark onset. Using exported running wheel activity onsets from actograms, onset hours advanced each day were determined by subtracting this value each day from the average onset of running wheel activity for 3 days prior to treatment for each mouse. Further, using the data from this calculation combined with visualization of actograms, the number of days to reach stable re-entrainment was determined for each mouse.
All statistical analyses as described in further detail for each experiment were conducted using GraphPad Prism 8™ (La Jolla, Calif.). All data sets were visualized for normality using QQ plots of predicted vs. actual residuals. Actigraphy data was generated for visualization blind to treatment prior to the quantification and statistical analysis stages. […] Data in FIGS. 4F & 4G were compared via a two-way ANOVA (3×2: genotype x treatment) with Tukey's post hoc analyses (P<0.05). […]

hMT1 [2] = molecular target: T1, hMT1; assay: cAMP assay (GloSensor), isoproterenol-stimulated cAMP in HEK cells; assay type: cell-based; parameters: expressed in transfected cells; host or cells: HEK-T (HEK-293 T) cells, co-transfected with GloSensor DNA; details: for Emax: read-out: MT1 % Emax (converted)
Procedure: HEK-293 T cells were maintained with complete Dulbecco's modified Eagle's medium (DMEM), which is composed of 10% fetal bovine serum (FBS), 2 mM L-glutamine, 100 units/ml penicillin G, 100 μg/ml streptomycin at 37° C. in the presence of 5% CO2
(§1) MT1 and MT2 receptors were tested using Promega's spilt luciferase based GboSensor cAMP biosensor technology. HEK-T cells were plated in 15 cm cell culture dish (at a density of 18 million cells) containing DMEM composed of 10% dialyzed FBS, 2 mM L-glutamine, 100 units/ml penicillin G, 100 μg/ml streptomycin for 4-6 hour. Then, cells were co-transfected with 8 μg of construct which encodes either MT1 or MT2 (de-Tangonized constructs) and […] of Glosensor DNA. Next day, transfected cells were seeded into poly-L-lysinecoated 384-well white clear bottom cell culture plates with complete DMEM with 1% dialized FBS at a density of 20,000 cells per well for another 24 h. The next day, cell medium were discarded and loaded with 20 μl of assay buffer (1×HBSS, 20 mM HEPES, pH 7.4, 0.1% BSA). To measure agonist activity of MT1 or MT2 receptor, 10 μl of test compound solution at 3× final concentration was added for 15 minutes followed by addition of 10 μl of luciferin/isoproterenol mixture (at a final concentration of 4 mM and 200 nM respectively) for another 15 mins for luminescence quantification. Then, plates were counted using SpectraMax luminescence reader (Molecular Device). Data were analyzed using GraphPad Prism 6.0.

MT2 [3] = molecular target: T2, MT2 (Homo sapiens, UniProt P49286); assay: as above; assay type: cell-based; parameters: expressed in transfected cells; host or cells: HEK-T (HEK-293 T) cells, co-transfected with GloSensor DNA; MT2 activity: dose or concentration left out as unconfirmed; details: for Emax: read-out: MT2 % Emax (converted); for EC50: read-out: EC50 at MT2; for MT2 pEC50: Table 2
T2 sequence (P49286 1-362): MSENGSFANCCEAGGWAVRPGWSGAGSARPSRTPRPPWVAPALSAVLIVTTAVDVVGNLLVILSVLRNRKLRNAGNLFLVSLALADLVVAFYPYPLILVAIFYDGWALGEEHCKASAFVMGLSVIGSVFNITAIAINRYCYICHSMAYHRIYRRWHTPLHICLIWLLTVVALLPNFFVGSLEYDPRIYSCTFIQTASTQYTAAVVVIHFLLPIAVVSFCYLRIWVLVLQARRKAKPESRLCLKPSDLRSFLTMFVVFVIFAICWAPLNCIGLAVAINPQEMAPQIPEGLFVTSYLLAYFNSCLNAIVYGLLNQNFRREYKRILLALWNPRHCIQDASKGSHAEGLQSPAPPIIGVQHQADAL
Procedure: as §1, with “Next day, transfected cells were seeded into poly-L-lysinecoated 384-well white clear bottom cell culture plates with complete DMEM with 1% dialized FBS at a density of 20,000 cells per well for another 24 h.” left out

MT2 [4] = molecular target: T2, MT2; assay: Ligand bias quantification (G protein vs β-arrestin pathway, melatonin as reference); assay type: cell-based; parameters: expressed in transfected cells; host or cells: HEK-T cells (Gi/cAMP arm) and HTLA cells (β-arrestin Tango arm); details: at MT2; bias factor 10^ΔΔLog(Emax/EC50)
[5] = HEK293, Table 1, agonist, normalized to melatonin response
[6] = HEK293, Table 2, agonist, normalized to melatonin response
[7] = HEK293, Table 2, cell marked Inverse (inverse agonist)
[8] = cell marked Inverse (inverse agonist)
[9] = HEK293, Table 1, cell marked Inverse (inverse agonist)

T1 sequence (P48039 whole entry): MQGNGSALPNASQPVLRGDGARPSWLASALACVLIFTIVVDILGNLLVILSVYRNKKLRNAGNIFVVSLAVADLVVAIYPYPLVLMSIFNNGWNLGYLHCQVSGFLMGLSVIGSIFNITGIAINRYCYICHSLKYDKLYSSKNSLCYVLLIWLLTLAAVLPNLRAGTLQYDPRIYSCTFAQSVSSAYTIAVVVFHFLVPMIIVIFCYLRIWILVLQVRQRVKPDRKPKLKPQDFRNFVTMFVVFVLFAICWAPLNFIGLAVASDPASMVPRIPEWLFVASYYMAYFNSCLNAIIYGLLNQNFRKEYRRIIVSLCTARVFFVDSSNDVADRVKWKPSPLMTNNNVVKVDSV

| Structure (SMILES) | Emax (hMT1 [2]; [5]) [%] | MT1 pEC50 (hMT1 [2]; Table 1, agonist) | Emax (MT2 [3]; [5]) [%] | Emax (MT2 [3]; [6]) [%] | MT2 pEC50 (MT2 [3]; agonist) | Emax (hMT1 [2]; [6]) [%] | MT1 pEC50 (hMT1 [2]; Table 2, agonist) | other results |
| --- | --- | --- | --- | --- | --- | --- | --- | --- |
| COc1ccc2[nH]cc(CCNC(C)=O)c2c1 [Melatonin, reference compound] | – | – | – | – | – | – | – | ΔpKi (pKi control − pKi inactive) (hMT1 [1]): 1.19; rate of re-entrainment to the new light-dark cycle (C3H/HeN mice): accelerated re-entrainment |
| COC(=O)c1cc(Cn2ccn3c(=O)cc(C)nc23)c(C)s1 [ZINC419113878] | 84 | 5.20 ± 0.08 | – | – | – | – | – | EC50 (hMT1 [2]; agonist, read-out: EC50 at MT1): 2000 to 6000 nM; MT2 activity (MT2 [3]): without detectable MT2 activity |
| COC(=O)c1ccc(I)c(Oc2ccnc(C)n2)c1 [ZINC432154404] | 95 | 6.63 ± 0.17 | 74 | – | – | – | – | – |
| Cn1c(=O)oc2c(NCc3ccc(-c4cc[nH]n4)o3)cccc21 [ZINC433313647] | 42 | 6.81 ± 0.32 | 96 | – | – | – | – | – |
| COc1ccc2c(c1)N(Cc1ccc(C#N)c(OC)c1)CCO2 [ZINC442850041] | 99 | 7.91 ± 0.04 | 97 | – | – | – | – | selectivity for the MT2 receptor (MT2 [3]): 25 fold; EC50 (MT2 [3]; agonist): 0.47 nM; Bias (MT2 [4]): 0.046 |
| COc1ccc(CN(C(=O)c2scc(C)c2Cl)c2ccncc2)cc1 [ZINC485552623] | – | – | – | 107 | 5.80 ± 0.06 | – | – | MT1 activity (hMT1 [2]; FIG. 7D, in words): without detectable MT1 activity |
| COc1ccc(CN(C(=O)OC2CCC2)c2ccncc2)cc1 [ZINC497291360] | – | – | – | 75 ± 50.1 | 7.48 ± 0.05 | 92 | 7.05 ± 0.10 | selectivity for MT2 over MT1 (MT2 [3]; FIG. 7 analogs of '9032): 2 fold |
| Clc1cc(Br)ccc1CNc1cccc(-c2nnc[nH]2)c1 [ZINC516666069] | – | – | – | – | – | – | – | Emax (hMT1 [2]; [7]): 42%; MT1 pEC50 (hMT1 [2]; Table 2, cell marked Inverse (inverse agonist)): 7.05 ± 0.03; Emax (MT2 [3]; [7]): 118%; MT2 pEC50 (MT2 [3]; [8]): 5.58 ± 0.04 |
| CCc1nc(SCc2cccc(C(=O)OC)c2)nc(O)c1C [ZINC576887661] | 83 | 7.10 ± 0.19 | 68 | – | – | – | – | – |
| COCCN(Cc1ccc2c(c1)OCO2)c1nc(C(F)(F)F)ns1 [ZINC580731466] | 71 | 5.70 ± 0.13 | 98 | – | – | – | – | selectivity for the MT2 receptor (MT2 [3]): ~100 fold |
| COC(=O)c1cc(Cn2nc(C)c(N)c2C)c(C)s1 [ZINC602421874] | – | – | – | 66 | 5.35 ± 0.10 | 51 | 4.70 ± 0.11 | – |
| CCOC(=O)c1nc(N(C)CC2CCCC2O)ccc1Br (centres unmarked) [ZINC603324490] | – | – | – | – | – | – | – | Emax (hMT1 [2]; [9]): 37%; MT1 pEC50 (hMT1 [2]; Table 1, cell marked Inverse (inverse agonist)): 5.92 ± 0.29; MT1 efficacy (hMT1 [2]; in the concentration range of its MT2 inverse agonism (600 nM)): without substantial MT1 efficacy; Emax (MT2 [3]; [9]): 202%; EC50 (MT2 [3]; inverse agonist): 600 nM |
| COc1ccc2c(c1)N(Cc1ccn(C)c(=O)c1)CCO2 [ZINC608506688] | – | – | – | 89 | 8.60 ± 0.10 | 99 | 9.78 ± 0.13 | Bias (MT2 [4]): 8.2 |
| COC(=O)c1csc(CSc2nnc(C3CC3)[nH]2)c1 [ZINC713465976] | – | – | – | 94 | 8.23 ± 0.11 | 101 | 7.75 ± 0.22 | – |
| COc1ccc(CNc2cccc(-n3nccn3)c2)cc1 [ZINC864032792] | – | – | – | – | – | 57 | 7.49 ± 0.04 | Emax (MT2 [3]; [7]): 35%; MT2 pEC50 (MT2 [3]; [8]): 6.66 ± 0.08 |
